The structures appear in SMILES notation. “And” between values parts separate entries of the source, which are not always exact repeats. Identical values can stand only once.

The target of series [1] is T1, DAT (Homo sapiens, UniProt Q01959). Briefly: Radioligand binding, [3H]WIN35,428 displacement. To be noted: read-out: DAT Ki; mean±SD, n=3.
The target in series [2] is 5-HT2A receptor (Homo sapiens, UniProt P28223). As to the kind of experiment: Radioligand binding, [3H]ketanserin displacement. To be noted: read-out: 5-HT2A Ki; mean±SD, n=3.
For series [3], the target named is T1, DAT. Briefly: [3H]dopamine uptake inhibition in HEK 293 cells overexpressing human DAT. The series is classed as cell-based.
Series [4] has as its target SERT (Homo sapiens, UniProt P31645). As to the kind of experiment: Radioligand binding, [3H]citalopram displacement. To be noted: read-out: SERT Ki; mean±SD, n=3.
The target in series [5] is T2, α2 adrenergic receptor (α2A) (Homo sapiens, UniProt P08913).
T2 sequence (P08913 1-465): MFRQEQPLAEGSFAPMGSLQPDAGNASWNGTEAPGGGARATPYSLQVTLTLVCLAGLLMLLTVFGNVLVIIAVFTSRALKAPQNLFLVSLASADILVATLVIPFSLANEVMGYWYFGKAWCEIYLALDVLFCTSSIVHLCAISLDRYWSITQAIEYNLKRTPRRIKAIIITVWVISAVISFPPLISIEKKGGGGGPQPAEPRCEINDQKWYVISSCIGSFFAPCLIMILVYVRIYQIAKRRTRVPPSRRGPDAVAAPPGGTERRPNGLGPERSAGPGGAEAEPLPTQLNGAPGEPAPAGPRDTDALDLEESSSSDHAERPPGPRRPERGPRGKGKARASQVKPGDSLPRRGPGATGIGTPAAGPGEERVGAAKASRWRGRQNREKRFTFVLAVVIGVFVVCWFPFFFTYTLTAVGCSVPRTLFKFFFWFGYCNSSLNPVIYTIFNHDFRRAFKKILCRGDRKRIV
As to the kind of experiment: Radioligand binding, [3H]rauwolscine displacement. To be noted: read-out: α2A Ki; mean±SD, n=3.

For series [6], the target named is T3, 5-HT2C receptor (Homo sapiens, UniProt P28335).
T3 sequence (P28335 33-458): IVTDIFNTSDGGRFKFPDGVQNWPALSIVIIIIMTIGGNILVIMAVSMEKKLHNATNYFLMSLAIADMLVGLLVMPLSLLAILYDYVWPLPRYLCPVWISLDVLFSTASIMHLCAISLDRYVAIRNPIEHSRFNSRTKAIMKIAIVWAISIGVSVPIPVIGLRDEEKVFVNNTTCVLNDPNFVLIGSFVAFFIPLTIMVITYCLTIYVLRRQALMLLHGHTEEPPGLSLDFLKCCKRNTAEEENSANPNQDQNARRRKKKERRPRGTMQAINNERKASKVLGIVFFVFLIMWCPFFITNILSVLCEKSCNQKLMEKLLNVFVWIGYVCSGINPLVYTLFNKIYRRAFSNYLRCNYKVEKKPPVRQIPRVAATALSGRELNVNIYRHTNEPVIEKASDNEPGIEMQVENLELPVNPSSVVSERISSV
As to the kind of experiment: biochemical. The series is classed as binding. To be noted: read-out: 5-HT2c Ki; mean±SD, n=3.

Series [7] has as its target T4, α1 adrenergic receptor (α1A) (Homo sapiens, UniProt P35348).
T4 sequence (P35348 1-466): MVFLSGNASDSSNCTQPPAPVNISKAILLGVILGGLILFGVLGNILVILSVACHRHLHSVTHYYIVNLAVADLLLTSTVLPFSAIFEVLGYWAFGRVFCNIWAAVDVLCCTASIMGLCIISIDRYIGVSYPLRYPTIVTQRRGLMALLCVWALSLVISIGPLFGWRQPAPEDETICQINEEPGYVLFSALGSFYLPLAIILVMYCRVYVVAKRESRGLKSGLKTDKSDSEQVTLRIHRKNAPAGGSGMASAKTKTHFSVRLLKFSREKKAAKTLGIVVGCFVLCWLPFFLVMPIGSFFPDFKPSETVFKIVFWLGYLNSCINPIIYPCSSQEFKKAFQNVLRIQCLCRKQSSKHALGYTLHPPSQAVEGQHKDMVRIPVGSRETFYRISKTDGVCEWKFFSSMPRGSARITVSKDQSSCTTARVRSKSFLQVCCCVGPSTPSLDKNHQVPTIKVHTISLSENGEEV
As to the kind of experiment: Radioligand binding, [3H]prazosin displacement. To be noted: read-out: α1A Ki; mean±SD, n=3.

The target in series [8] is NET (Homo sapiens, UniProt P23975). As to the kind of experiment: Radioligand binding, N-methyl-[3H]nisoxetine displacement. The settings on record: read-out: NET Ki; mean±SD, n=3.
Series [9] has as its target human 5-HT transporter (SERT) (Homo sapiens, UniProt P31645). Briefly: [3H]5-HT uptake inhibition in HEK 293 cells overexpressing human SERT. It is filed as cell-based. To be noted: read-out: SERT IC50; 5-HT uptake inhibition; mean and 95% confidence interval.
For series [10] the following is noted: rat plasma, ref Elmore et al., 2017, cited from earlier work; for amount in plasma as % of parent compound methylone: subcutaneous injections of methylone; for time at which Cmax was reached: subcutaneous methylone.
The target of series [11] is T5, 5-HT1A receptor (Homo sapiens, UniProt P08908).
T5 sequence (P08908 1-422): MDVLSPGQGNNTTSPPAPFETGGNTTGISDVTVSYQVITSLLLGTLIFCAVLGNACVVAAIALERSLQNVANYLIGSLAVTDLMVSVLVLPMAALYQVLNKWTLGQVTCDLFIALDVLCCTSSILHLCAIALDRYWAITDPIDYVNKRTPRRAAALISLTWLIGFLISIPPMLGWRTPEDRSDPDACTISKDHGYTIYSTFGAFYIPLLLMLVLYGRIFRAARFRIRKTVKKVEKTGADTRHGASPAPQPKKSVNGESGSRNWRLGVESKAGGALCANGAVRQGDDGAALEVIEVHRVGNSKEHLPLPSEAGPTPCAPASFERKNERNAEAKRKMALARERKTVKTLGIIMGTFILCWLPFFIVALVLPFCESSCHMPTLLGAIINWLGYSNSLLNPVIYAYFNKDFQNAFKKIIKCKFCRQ
As to the kind of experiment: Radioligand binding, [3H]8-hydroxy-2-. The settings on record: read-out: 5-HT1A Ki; mean±SD, n=3.

In series [12] the target is dopamine D2 receptors (Homo sapiens, UniProt P14416). Briefly: Radioligand binding, [3H]spiperone displacement. To be noted: read-out: D2 Ki; mean±SD, n=3.
Series [13] has as its target mouse TAAR1 (Mus musculus, UniProt Q923Y8). As to the kind of experiment: Radioligand binding, [3H]RO5166017 displacement. The settings on record: read-out: TAAR1mouse Ki; mean±SD, n=3.
The target of series [14] is rat TAAR1 (Rattus norvegicus, UniProt Q923Y9). As to the kind of experiment: Radioligand binding, [3H]RO5166017 displacement. To be noted: read-out: TAAR1rat Ki; mean±SD, n=3.
For series [15] the following is noted: rats, ref Anizan et al., 2016, cited from earlier work; for maximal concentration as % of the parent compound MDPV: subcutaneous 0.5–2 mg/kg MDPV; for Tmax: subcutaneous injections of 0.5–2 mg/kg MDPV.

SERT, sequence (P31645 whole entry): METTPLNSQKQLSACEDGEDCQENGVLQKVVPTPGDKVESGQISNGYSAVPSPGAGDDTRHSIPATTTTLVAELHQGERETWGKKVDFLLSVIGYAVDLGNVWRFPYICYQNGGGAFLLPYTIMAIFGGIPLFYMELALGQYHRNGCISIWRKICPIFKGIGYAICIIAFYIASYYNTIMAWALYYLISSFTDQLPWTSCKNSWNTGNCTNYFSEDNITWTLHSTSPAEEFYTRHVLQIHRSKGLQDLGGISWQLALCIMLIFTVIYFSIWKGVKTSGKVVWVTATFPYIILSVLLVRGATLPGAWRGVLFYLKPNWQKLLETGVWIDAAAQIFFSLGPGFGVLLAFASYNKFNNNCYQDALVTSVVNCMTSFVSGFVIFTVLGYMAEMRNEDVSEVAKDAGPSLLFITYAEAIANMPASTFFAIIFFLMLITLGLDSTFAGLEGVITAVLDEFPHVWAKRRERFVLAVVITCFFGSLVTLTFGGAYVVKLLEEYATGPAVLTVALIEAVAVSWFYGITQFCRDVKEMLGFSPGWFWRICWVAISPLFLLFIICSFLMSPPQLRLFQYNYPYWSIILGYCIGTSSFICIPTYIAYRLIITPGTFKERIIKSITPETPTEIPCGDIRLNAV
human 5-HT transporter (SERT), sequence (P31645 whole entry): as above
rat TAAR1, sequence (Q923Y9 whole entry): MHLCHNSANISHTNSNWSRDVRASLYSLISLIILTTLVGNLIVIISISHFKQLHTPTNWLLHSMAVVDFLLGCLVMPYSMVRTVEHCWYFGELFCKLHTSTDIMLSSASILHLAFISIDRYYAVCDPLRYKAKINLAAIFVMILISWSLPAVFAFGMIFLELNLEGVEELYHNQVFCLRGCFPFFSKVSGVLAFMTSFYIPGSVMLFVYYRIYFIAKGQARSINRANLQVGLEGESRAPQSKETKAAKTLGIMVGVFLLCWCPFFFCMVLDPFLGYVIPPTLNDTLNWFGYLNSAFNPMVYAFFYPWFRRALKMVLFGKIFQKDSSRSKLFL
T1 sequence (Q01959 whole entry): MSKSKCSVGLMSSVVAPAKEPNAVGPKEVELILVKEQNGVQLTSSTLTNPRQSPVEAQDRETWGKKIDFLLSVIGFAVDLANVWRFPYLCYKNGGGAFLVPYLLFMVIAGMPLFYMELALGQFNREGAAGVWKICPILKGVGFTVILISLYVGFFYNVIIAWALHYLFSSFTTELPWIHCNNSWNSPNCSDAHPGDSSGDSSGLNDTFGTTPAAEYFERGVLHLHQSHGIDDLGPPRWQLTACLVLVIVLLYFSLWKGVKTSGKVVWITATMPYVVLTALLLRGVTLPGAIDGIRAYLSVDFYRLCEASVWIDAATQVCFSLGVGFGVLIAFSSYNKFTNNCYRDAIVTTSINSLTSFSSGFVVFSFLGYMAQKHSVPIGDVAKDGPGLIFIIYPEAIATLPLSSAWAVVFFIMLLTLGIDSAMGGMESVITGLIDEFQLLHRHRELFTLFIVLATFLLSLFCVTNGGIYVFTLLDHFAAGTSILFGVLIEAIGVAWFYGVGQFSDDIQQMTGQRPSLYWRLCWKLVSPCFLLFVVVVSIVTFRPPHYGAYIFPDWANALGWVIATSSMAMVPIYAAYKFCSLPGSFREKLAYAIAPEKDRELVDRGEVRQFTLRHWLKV
dopamine D2 receptors, sequence (P14416 whole entry): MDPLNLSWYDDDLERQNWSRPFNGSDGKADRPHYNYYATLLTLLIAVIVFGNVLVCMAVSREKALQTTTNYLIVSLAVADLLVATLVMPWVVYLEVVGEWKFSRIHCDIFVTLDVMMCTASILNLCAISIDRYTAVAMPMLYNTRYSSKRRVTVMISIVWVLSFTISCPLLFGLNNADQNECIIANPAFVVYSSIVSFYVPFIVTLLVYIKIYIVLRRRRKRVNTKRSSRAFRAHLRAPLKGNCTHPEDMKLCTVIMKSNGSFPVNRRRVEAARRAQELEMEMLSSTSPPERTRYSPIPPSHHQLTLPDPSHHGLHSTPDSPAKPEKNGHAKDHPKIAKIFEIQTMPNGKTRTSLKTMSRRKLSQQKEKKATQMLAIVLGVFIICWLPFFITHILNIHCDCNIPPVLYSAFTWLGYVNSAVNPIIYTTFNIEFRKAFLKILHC
mouse TAAR1, sequence (Q923Y8 whole entry): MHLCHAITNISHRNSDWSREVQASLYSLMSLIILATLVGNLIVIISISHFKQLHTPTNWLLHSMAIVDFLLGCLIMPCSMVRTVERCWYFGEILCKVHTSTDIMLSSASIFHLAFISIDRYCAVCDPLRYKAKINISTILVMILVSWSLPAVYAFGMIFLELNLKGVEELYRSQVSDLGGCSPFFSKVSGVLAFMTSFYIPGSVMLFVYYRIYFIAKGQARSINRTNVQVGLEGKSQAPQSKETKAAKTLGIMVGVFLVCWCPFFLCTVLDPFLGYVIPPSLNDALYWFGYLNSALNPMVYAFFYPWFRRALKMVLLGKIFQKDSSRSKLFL
NET, sequence (P23975 whole entry): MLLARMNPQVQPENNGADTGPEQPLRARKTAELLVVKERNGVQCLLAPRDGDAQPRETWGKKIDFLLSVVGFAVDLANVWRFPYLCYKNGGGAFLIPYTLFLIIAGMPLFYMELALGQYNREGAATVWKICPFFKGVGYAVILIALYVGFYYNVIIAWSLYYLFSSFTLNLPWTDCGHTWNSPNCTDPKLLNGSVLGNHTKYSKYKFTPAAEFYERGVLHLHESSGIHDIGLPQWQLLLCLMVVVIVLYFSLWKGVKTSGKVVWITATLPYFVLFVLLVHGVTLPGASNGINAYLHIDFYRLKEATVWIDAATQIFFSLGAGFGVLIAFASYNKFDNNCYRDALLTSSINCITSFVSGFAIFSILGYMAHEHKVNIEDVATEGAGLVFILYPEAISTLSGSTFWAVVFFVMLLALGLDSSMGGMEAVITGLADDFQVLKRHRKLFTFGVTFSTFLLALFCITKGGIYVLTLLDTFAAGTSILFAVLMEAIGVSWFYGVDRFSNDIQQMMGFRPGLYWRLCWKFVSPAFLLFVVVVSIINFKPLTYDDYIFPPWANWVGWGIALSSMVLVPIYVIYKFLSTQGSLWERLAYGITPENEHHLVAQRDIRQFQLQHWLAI
5-HT2A receptor, sequence (P28223 whole entry): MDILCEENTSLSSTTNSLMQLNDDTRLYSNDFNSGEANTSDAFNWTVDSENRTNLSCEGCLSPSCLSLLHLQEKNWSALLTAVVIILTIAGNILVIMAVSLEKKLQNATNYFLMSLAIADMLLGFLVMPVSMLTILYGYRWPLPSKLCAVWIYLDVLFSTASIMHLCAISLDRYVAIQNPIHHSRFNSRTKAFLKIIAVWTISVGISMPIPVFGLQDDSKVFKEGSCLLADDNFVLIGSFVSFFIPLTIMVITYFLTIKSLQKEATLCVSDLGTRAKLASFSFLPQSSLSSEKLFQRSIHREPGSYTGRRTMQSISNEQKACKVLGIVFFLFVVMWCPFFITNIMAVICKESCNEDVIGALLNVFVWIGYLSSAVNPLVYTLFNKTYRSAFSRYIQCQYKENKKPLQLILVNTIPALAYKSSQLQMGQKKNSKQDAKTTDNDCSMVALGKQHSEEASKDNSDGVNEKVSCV

As a reminder, the Ki is the equilibrium dissociation constant of an inhibitor or competing ligand from its target. Usually IC50 stands for the concentration that inhibits the measured activity by half. As for `CNC(C)C(=O)c1ccc(O)c(OC)c1` (stereo not shown) [HMMC, 4-hydroxy-3-methyoxymethcathinone], the Ki in [1] was greater than 8.5 µM; in [2], greater than 12 µM; in series [4], greater than 7.4 µM; in series [5] it was greater than 4.7 µM; in series [6] it was greater than 5.1 µM; in series [7], greater than 9.5 µM. The Ki was 4 µM and 4.2 µM in series [8]; greater than 18 µM in series [11]; greater than 13 µM in [12]; greater than 4.4 µM in [13]; greater than 5.2 µM in series [14]. Also, in [3] (partial inhibition of dopamine uptake), the “maximum dopamine transporter inhibition” value is listed as 26%. For the same compound, the 50% inhibitory concentration (IC50) in series [9] is greater than 100 µM. Moreover, in series [10], the “amount in plasma as % of parent compound methylone” value is recorded as 12–22%. Further, the “time at which Cmax was reached” value in [10] was 90 to 120 min.

Turning to `CNC(C)C(=O)c1ccc(O)c(O)c1` (stereo not shown) [HHMC, 3,4-Dihydroxymethcathinone], the Ki in [1] was 7.1 ± 0.3 µM; in series [2], greater than 12 µM; in series [4], greater than 7.4 µM; in series [5], greater than 4.7 µM; in series [6] it was greater than 5.1 µM; in series [7], greater than 9.5 µM. Further, the Ki in series [8] was 4 ± 1 µM; in series [11], greater than 18 µM; in [12], greater than 13 µM; in series [13] it was greater than 4.4 µM; in [14], 2.2 ± 0.1 µM. Moreover, in [3] (anomalous increase at some concentrations, non-sigmoidal curves), the “increase of dopamine uptake” value was “more than 200%”. Moreover, in [9], the IC50 is greater than 100 µM. In series [10], the “amount in plasma as % of parent compound methylone” value was 10–13%. In addition, the “time at which Cmax was reached” value in series [10] is 60 to 70 min.

In general, Tmax refers to the time at which the peak concentration occurs. Turning to `CCCC(C(=O)c1ccc(O)c(O)c1)N1CCCC1` (stereo not shown) [HHPV, 3,4-dihydroxypyrovalerone], the inhibition constant Ki in series [1] is 0.02 µM and 0.023 µM; in series [2] it was greater than 12 µM; in series [4], greater than 7.4 µM; in [5] it was greater than 4.7 µM; in [6], greater than 5.1 µM; in [7] it was greater than 9.5 µM. Also, the Ki in series [8] was 0.11 ± 0.01 µM; in [11], 4.3 ± 1.6 µM; in series [12] it was greater than 13 µM; in series [13], greater than 4.4 µM; in series [14], greater than 5.2 µM. Further, the “maximal concentration as % of the parent compound MDPV” value in series [15] was 12–19%. Moreover, in series [15], the Tmax is 3.43 to 4.28 h. The IC50 in series [9] is greater than 100 µM.

On to `CCCC(C(=O)c1ccc(O)c(OC)c1)N1CCCC1` (stereo not shown) [HMPV, 4-hydroxy-3-methyoxypyrovalerone], for which the Ki in series [1] was 2 ± 0.2 µM; in [2], greater than 12 µM; in series [4], greater than 7.4 µM; in series [5], greater than 4.7 µM; in [6] it was greater than 5.1 µM; in [7], greater than 9.5 µM. Moreover, the Ki in [8] is 6.2 ± 0.7 µM; in [11], greater than 17 µM; in [12], greater than 13 µM; in [13], greater than 4.4 µM; in [14], greater than 5.2 µM. Besides, the “maximal concentration as % of the parent compound MDPV” value in [15] was 53–61%. Also, the time to peak (Tmax) in series [15] was 3.15 to 3.43 h. For the same compound, in [9], the IC50 was greater than 100 µM.

The record behind these values is publication PMC8269116 (Journal of psychopharmacology (Oxford, England), 2019).
